# Where “and” joins values, the source holds several entries; their conditions need not be identical. Equal entries are not always repeated. Inconclusive results and toxic doses are left out.
# Tested on: P388 leukemia ip, CD2F1 mice, survival T/C
# Experiment: NCI In Vivo Anticancer Drug Screen. Data for tumor model P388 Leukemia (intraperitoneal) in CD2F1 (CDF1) mice
# Conditions: endpoint: median survival time, higher = longer survival
# Procedure, shortened: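 Mice carrying the transplanted tumor received test compound or vehicle. Survival was recorded in each group, and the value is the treated-group measurement divided by that of the vehicle-treated control group.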
# [1] = dose: 100.0 mg/kg/injection, schedule: Q01DX001 (ip), vehicle: saline with Tween-80
# [2] = dose: 200.0 mg/kg/injection, schedule: Q01DX001 (ip), vehicle: saline with Tween-80
# [3] = dose: 400.0 mg/kg/injection, schedule: Q01DX001 (ip), vehicle: saline with Tween-80
# [4] = dose: 100.0 mg/kg/injection, schedule: Q04DX003 (ip), vehicle: saline with Tween-80
# [5] = dose: 200.0 mg/kg/injection, schedule: Q04DX003 (ip), vehicle: saline with Tween-80
# [6] = dose: 400.0 mg/kg/injection, schedule: Q04DX003 (ip), vehicle: saline with Tween-80
# [7] = dose: 100.0 mg/kg/injection, schedule: Q01DX009 (ip), vehicle: Klucel (hydroxypropylcellulose) (HPC)
# [8] = dose: 200.0 mg/kg/injection, schedule: Q01DX009 (ip), vehicle: Klucel (hydroxypropylcellulose) (HPC)
# [9] = dose: 50.0 mg/kg/injection, schedule: Q01DX005 (ip), vehicle: Klucel (hydroxypropylcellulose) (HPC)
# [10] = dose: 100.0 mg/kg/injection, schedule: Q01DX005 (ip), vehicle: Klucel (hydroxypropylcellulose) (HPC)
# [11] = dose: 200.0 mg/kg/injection, schedule: Q01DX005 (ip), vehicle: Klucel (hydroxypropylcellulose) (HPC)
# [12] = dose: 50.0 mg/kg/injection, schedule: Q01DX009 (ip), vehicle: saline
# [13] = dose: 60.0 mg/kg/injection, schedule: Q01DX005 (ip), vehicle: saline with Tween-80
# [14] = dose: 120.0 mg/kg/injection, schedule: Q01DX005 (ip), vehicle: saline with Tween-80
# [15] = dose: 50.0 mg/kg/injection, schedule: Q01DX009 (ip), vehicle: Klucel (hydroxypropylcellulose) (HPC)
structure (smiles),measurement,setting,value
CO/C=C1\CC(=O)N(c2ccccc2)C1=O,T/C,"dose: 100.0 mg/kg/injection, schedule: Q04DX003 (ip), vehicle: saline",106 % of control
same,T/C,"dose: 200.0 mg/kg/injection, schedule: Q04DX003 (ip), vehicle: saline",100 % of control
same,T/C,"dose: 400.0 mg/kg/injection, schedule: Q04DX003 (ip), vehicle: saline",97 % of control
Cc1csc2ncnc(N)c12,T/C,"dose: 50.0 mg/kg/injection, schedule: Q04DX003 (ip), vehicle: Klucel (hydroxypropylcellulose) (HPC)",106 % of control
same,T/C,"dose: 100.0 mg/kg/injection, schedule: Q04DX003 (ip), vehicle: Klucel (hydroxypropylcellulose) (HPC)",115 % of control
same,T/C,"dose: 200.0 mg/kg/injection, schedule: Q04DX003 (ip), vehicle: Klucel (hydroxypropylcellulose) (HPC)",108 % of control
COc1ccc(/C=N/Nc2nnc3c4ccccc4c4ncccc4c3n2)cc1,T/C,[1],88 % of control
same,T/C,[2],95 % of control
same,T/C,[3],106 % of control
S,T/C,"dose: 100.0 mg/kg/injection, schedule: Q01DX009 (ip), vehicle: saline with Tween-80",113 % of control
same,T/C,"dose: 200.0 mg/kg/injection, schedule: Q01DX009 (ip), vehicle: saline with Tween-80",115 % of control
same,T/C,"dose: 400.0 mg/kg/injection, schedule: Q01DX009 (ip), vehicle: saline with Tween-80",113 % of control
C/C(=C\C(=O)O)CC(=O)O,T/C,[4],92 % of control
same,T/C,[5],97 % of control
same,T/C,[6],88 % of control
Cc1ccc(C(=O)OC(C(=O)O)C(OC(=O)c2ccc(C)cc2)C(=O)O)cc1 (configuration not stated) (tested in a mixture with another compound),T/C,"dose: 5.25 mg/kg/injection, schedule: Q01DX005 (ip), vehicle: Klucel (hydroxypropylcellulose) (HPC)",105 % of control
same,T/C,"dose: 10.5 mg/kg/injection, schedule: Q01DX005 (ip), vehicle: Klucel (hydroxypropylcellulose) (HPC)",107 % of control
same,T/C,"dose: 21.0 mg/kg/injection, schedule: Q01DX005 (ip), vehicle: Klucel (hydroxypropylcellulose) (HPC)",105 % of control
same,T/C,"dose: 42.0 mg/kg/injection, schedule: Q01DX005 (ip), vehicle: Klucel (hydroxypropylcellulose) (HPC)",100 % of control
CP(=Nc1ccccc1)(c1ccccc1)c1ccccc1,T/C,[1],95 % of control
same,T/C,[2],99 % of control
same,T/C,[3],102 % of control
O=CC(CO)CC(C=O)n1cnc2c(=O)[nH]cnc21 (configuration not stated),T/C,"dose: 150.0 mg/kg/injection, schedule: Q01DX005 (ip), vehicle: saline",155 % of control and 158 % of control
same,T/C,"dose: 300.0 mg/kg/injection, schedule: Q01DX005 (ip), vehicle: saline",165 % of control and 174 % of control
CO/N=C1/C=CC(Cl)=C/C1=C(\c1ccccc1Cl)C(C#N)c1ccccc1Cl (configuration not stated),T/C,[1],94 % of control
same,T/C,[2],102 % of control
same,T/C,[3],92 % of control
CC(=O)O[C@H]1CC[C@@]2(C)[C@@H](CC[C@@H]3[C@@H]2CC[C@]2(C)C(=NCCO)CC[C@@H]32)C1,T/C,[9],108 % of control
same,T/C,[10],105 % of control
same,T/C,[11],99 % of control
O=C(O)c1ncn2c(=O)n(CCCl)nnc12,T/C,"dose: 60.0 mg/kg/injection, schedule: Q01DX005 (ip), vehicle: Klucel (hydroxypropylcellulose) (HPC)",118 % of control
CC(C)=CC1C(C(=O)OCc2ccc3c(c2)OCO3)C1(C)C (configuration not stated),T/C,[12],107 % of control
same,T/C,"dose: 100.0 mg/kg/injection, schedule: Q01DX009 (ip), vehicle: saline",93 % of control
same,T/C,"dose: 200.0 mg/kg/injection, schedule: Q01DX009 (ip), vehicle: saline",99 % of control
same,T/C,"dose: 400.0 mg/kg/injection, schedule: Q01DX009 (ip), vehicle: saline",104 % of control
N=C(N)SCC(=O)Nc1nc(NC(=O)CSC(=N)N)nc(NC(=O)CSC(=N)N)n1,T/C,"dose: 100.0 mg/kg/injection, schedule: Q04DX002 (ip), vehicle: saline",101 % of control
same,T/C,"dose: 200.0 mg/kg/injection, schedule: Q04DX002 (ip), vehicle: saline",99 % of control
same,T/C,"dose: 400.0 mg/kg/injection, schedule: Q04DX002 (ip), vehicle: saline",100 % of control
CNCc1c(C)[nH]c2ccc(N(C)C)cc2c1=O,T/C,[13],101 % of control
same,T/C,[14],104 % of control
CC(C)c1ccc(C2C3CCN2CC3)cc1 (configuration not stated),T/C,[12],91 % of control
COc1cc2c(cc1[N+](=O)[O-])C(=O)CCCC2,T/C,"dose: 100.0 mg/kg/injection, schedule: Q01DX009 (sc), vehicle: olive oil, sesame oil, peanut oil",104 % of control
same,T/C,"dose: 200.0 mg/kg/injection, schedule: Q01DX009 (sc), vehicle: olive oil, sesame oil, peanut oil",100 % of control
same,T/C,"dose: 400.0 mg/kg/injection, schedule: Q01DX009 (sc), vehicle: olive oil, sesame oil, peanut oil",107 % of control
CC[C@]1(O)CC(OC2CC(N(C)C)C(O)C(C)O2)c2c(cc3c(c2O)C(=O)c2c(O)cccc2C3=O)[C@@H]1C(=O)OC (some centres not stated),T/C,[9],95 % of control
same,T/C,[10],96 % of control
same,T/C,[11],97 % of control
COc1ccc(-c2c3c(c(O)c4cc5c(cc24)OCO5)COC3=O)cc1OC,T/C,"dose: 12.5 mg/kg/injection, schedule: Q01DX009 (ip), vehicle: Klucel (hydroxypropylcellulose) (HPC)",95 % of control
same,T/C,"dose: 25.0 mg/kg/injection, schedule: Q01DX009 (ip), vehicle: Klucel (hydroxypropylcellulose) (HPC)",104 % of control
same,T/C,[15],99 % of control
same,T/C,[7],105 % of control
CCCCCCCCCCCCOCCCOP(=O)([O-])OCC[N+](C)(C)C,T/C,"dose: 6.25 mg/kg/injection, schedule: Q01DX005 (ip), vehicle: saline",105 % of control
same,T/C,"dose: 12.5 mg/kg/injection, schedule: Q01DX005 (ip), vehicle: saline",100 % of control
same,T/C,"dose: 25.0 mg/kg/injection, schedule: Q01DX005 (ip), vehicle: saline",91 % of control
same,T/C,"dose: 50.0 mg/kg/injection, schedule: Q01DX005 (ip), vehicle: saline",91 % of control
same,T/C,"dose: 100.0 mg/kg/injection, schedule: Q01DX005 (ip), vehicle: saline",107 % of control
CC(=O)Nc1ccc(S(=O)(=O)N/N=c2/sc3ccccc3n2C)cc1,T/C,[13],100 % of control
same,T/C,[14],92 % of control
same,T/C,"dose: 240.0 mg/kg/injection, schedule: Q01DX005 (ip), vehicle: saline with Tween-80",95 % of control
N/C(=N/S(=O)(=O)c1cccc([N+](=O)[O-])c1)NS(=O)(=O)c1ccc([N+](=O)[O-])cc1,T/C,"dose: 7.5 mg/kg/injection, schedule: Q01DX009 (ip), vehicle: saline with Tween-80",101 % of control
same,T/C,"dose: 15.0 mg/kg/injection, schedule: Q01DX009 (ip), vehicle: saline with Tween-80",113 % of control
same,T/C,"dose: 30.0 mg/kg/injection, schedule: Q01DX009 (ip), vehicle: saline with Tween-80",110 % of control
C/C(=N\Nc1cc(C)nc2ccc(C)cc12)c1cn(C)n(-c2ccccc2)c1=O,T/C,[15],97 % of control
same,T/C,[7],86 % of control
Cc1cc(C)cc(N=Cc2ccc(C=Nc3cc(C)cc(C)c3)cc2)c1,T/C,[15],92 % of control
same,T/C,[7],95 % of control
same,T/C,[8],100 % of control
C=CC(=NC(C)(C)C)Nc1ccccc1C,T/C,"dose: 0.79 mg/kg/injection, schedule: Q01DX009 (ip), vehicle: saline",99 % of control and 103 % of control and 90 % of control
same,T/C,"dose: 1.56 mg/kg/injection, schedule: Q01DX009 (ip), vehicle: saline",101 % of control and 89 % of control
same,T/C,"dose: 12.5 mg/kg/injection, schedule: Q01DX009 (ip), vehicle: saline",99 % of control
CCn1c(=O)c2[nH]c(Cl)nc2n(CCOC)c1=O,T/C,[15],116 % of control
same,T/C,[7],96 % of control
same,T/C,[8],111 % of control
C[C@]12C=CC(=O)C[C@@H]1CC[C@@H]1[C@@H]2C(=O)C[C@]2(C)C(=O)CC[C@@H]12,T/C,[4],108 % of control
same,T/C,[5],91 % of control
same,T/C,[6],108 % of control
CCc1cccc(C)c1NC(=O)C(=O)C(C#N)c1ccccc1 (configuration not stated),T/C,"dose: 60.0 mg/kg/injection, schedule: Q01DX005 (ip), vehicle: saline",105 % of control
same,T/C,"dose: 120.0 mg/kg/injection, schedule: Q01DX005 (ip), vehicle: saline",108 % of control
same,T/C,"dose: 240.0 mg/kg/injection, schedule: Q01DX005 (ip), vehicle: saline",108 % of control
